{"source": "patent US9132138B2", "about": "“Method for the treatment of multiple sclerosis” (CASI Pharmaceuticals, Inc., priority 2012, dated 2015)", "target": "T1, GPER1 (Mus musculus, UniProt Q8BMP4)", "T1 construct": "Purified C57/BL6 CD4^+ T cells were preincubated with the GPER1 antagonist G15; endogenous in cells; host or cells: purified primary CD4+ T cells from C57/BL6 mice", "T1 sequence (Q8BMP4 1-375)": "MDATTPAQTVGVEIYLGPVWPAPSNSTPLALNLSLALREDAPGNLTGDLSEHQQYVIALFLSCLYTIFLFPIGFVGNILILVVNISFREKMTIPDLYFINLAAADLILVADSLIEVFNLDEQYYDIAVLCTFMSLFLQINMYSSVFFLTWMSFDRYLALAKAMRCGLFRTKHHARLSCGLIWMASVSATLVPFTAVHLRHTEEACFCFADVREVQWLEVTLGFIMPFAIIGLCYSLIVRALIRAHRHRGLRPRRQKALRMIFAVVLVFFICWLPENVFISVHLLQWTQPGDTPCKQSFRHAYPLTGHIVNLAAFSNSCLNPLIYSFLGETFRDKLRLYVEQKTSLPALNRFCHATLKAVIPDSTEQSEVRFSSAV", "assay": "GPER1 dependence: CD25/CD69 on CD4+ T cells with G15 or G1", "type": "cell-based, C57/BL6 mice", "details": "for cell viability: at 6 hours", "protocol": "FIGS. 6A and 6B show purified CD4^+ T cells that were pretreated with 2-50 μM 2ME2 and/or the GPER1 antagonist G15, and subsequently stimulated with anti-CD3/28 for 6 hours. Activation of CD4^+ T cells was assessed by CD25 and CD69 upregulation, measured by flow cytometry. US, unstimulated. Data is shown as mean±SD for triplicate determinations, and is representative of two separate experiments.\nPurified C57/BL6 CD4^+ T cells were preincubated with the GPER1 antagonist G15 (100 nM, Tocris) and 2ME2 (0-50 μM), or the GPER1 agonist G1 (1-100 nM, Tocris) for 30 minutes, and activated with plate bound anti-CD3 plus soluble anti-CD28. 6 hours later, cells were harvested, stained with anti-CD4 and anti-CD25. CD25 expression was monitored on a HTS FACSCanto II (BD) and analyzed with FloJo (Treestar Inc).", "key": {"[1]": {"details": "G15 100 nM with 2ME2, anti-CD3/28, 6 hours"}}}
{"smiles": "CC(=O)c1ccc2c(c1)C1C=CCC1C(c1cc3c(cc1Br)OCO3)N2", "note": "(stereo not drawn) [G1]", "values": [{"measurement": "CD25 expression on activated T cells", "setting": "G1 1-100 nM, 6 hours", "result": "no effect"}, {"measurement": "CD69 expression on activated T cells", "setting": "G1 1-100 nM, 6 hours", "result": "no effect"}, {"measurement": "cell viability", "result": "Neither 2ME2, G1 nor G15 affected cell viability"}]}
{"smiles": "Brc1cc2c(cc1[C@@H]1Nc3ccccc3[C@@H]3C=CC[C@@H]31)OCO2", "note": "[G15]", "values": [{"measurement": "reversal of the inhibitory effect of 2ME2 on CD25 expression", "setting": "[1]", "result": "failed to reverse"}, {"measurement": "reversal of the inhibitory effect of 2ME2 on CD69 expression", "setting": "[1]", "result": "failed to reverse"}, {"measurement": "cell viability", "result": "Neither 2ME2, G1 nor G15 affected cell viability"}]}
